Test results: US20200345689A1, “METHODS AND CO[…] RRx-001 FOR RADIOPROTECTION” (EpicentRx, Inc., priority 2018, published 2020)

Tests used:
[1] = system: male Syrian Golden Hamsters; assay: Oral mucositis induced by acute radiation in hamsters; type: in vivo
Description: In this example, the ability of RRx-001 to treat oral mucositis induced by acute radiation was assess in hamsters.
Fifty-six (56) male Syrian Golden Hamsters were used in the study. Mucositis was induced by administering an acute radiation dose of 40 Gy directed to the left buccal cheek pouch on Day 0 at a rate of 2-2.5 Gy/min. Mucositis was evaluated clinically starting on Day 6 and continuing on alternate days until Day 28. Hamsters reaching a mucositis severity score of 4 or higher received buprenorphine (0.5 mg/kg) SC twice a day for 48 hours or until score dropped below 4.
Dosing was scheduled as follows: for animals in Groups 1-4, animals were dosed with RRx-001 (1, 3, or 10 mg/kg) or vehicle (1:2 DMA:PEG400 vol:vol ratio) once a day (QD) on Days −4, −1, 1, 4, 7, 11, 14, 18, 21, and 25 via intraperitoneal (IP) administration; animals in Groups 5-7 were dosed QD with RRx-001 (1, 3, or 10 mg/kg) on Days −4, −1, 1, 8, 15, and 22.
The significance of differences observed between the control and treatment group was evaluated by comparing the days with mucositis scores≥3 and <3 between groups using chi-square analysis. […] The percentage of animal days with a score of ≥3 in the Vehicle Group was 57.29%. […] There were numerous days where animals dosed with RRx-001 had percent ulceration days that were lower (which can be interpreted as ameliorative of disease severity) in comparison to vehicle-dosed animals.
An analysis of the severity of mucositis was performed using the Mann-Whitney rank sum analysis to compare the visual mucositis scores for the treatment group to the Vehicle control group on each day of evaluation. In this analysis, 2 days of significant reduction in the mucositis score are generally required before it is regarded as meaningful.

[2] = system: human monocytic leukemic THP-1 cells; assay: Cytokine array of irradiated THP-1 monocytes and macrophages; type: cell-based
Description: A cytokine array was employed to examine cytokine expression following in vitro irradiation of human monocytic leukemic THP-1 cells. THP-1 cells were differentiated into macrophages with 50 nM Phorbol 12-myristate 13-acetate (PMA) for 24 hours before treatment. Differentiated and non-differentiated cells were treated with […] RRx-001 or 0.05% DMSO (vehicle control) for 16 hours prior to radiation. The cells were irradiated at 5 Gy or sham-irradiated and collected 4-8 hours later for both analysis. For the cytokine analysis, cell media was collected and blotted onto Proteome Profiler Human Cytokine Arrays (R&D Systems, Inc.) according to the manufacturer's protocol.

SOD1 and 2 = assay: Western blot of ARE protein expression in hMSC: SOD1 and 2; type: cell-based, human; conditions: 5 mM RRx-001 for 16 hours, 8 hours after 10 Gy irradiation
Description: Antioxidant response element (ARE) genes such as heme oxygenase 1 (HO-1), NAD(P)H Dehydrogenase [Quinone] 1 (NQO-1) and Superoxide Dismutase (SOD) are involved in the detoxification and elimination of reactive oxidants.
(§1) Expression of ARE proteins was assayed in hMSC, macrophages, and monocytes following in vitro irradiation of the cells, which were pretreated with RRx-001 or vehicle. Protein expression was assayed by Western blotting and protein quantification.
(§2) hMSC were treated for 16 hours with […] RRx-001 or the vehicle control (0.05% DMSO), irradiated at 10 Gy or sham-irradiated and the protein collected 8 or 24 hours post-sham or irradiation. Human monocytic leukemic THP-1 and U937 cells were differentiated into macrophages with 50 nM Phorbol 12-myristate 13-acetate (PMA) for 24 hours before treatment. Differentiated and non-differentiated cells were treated with […] RRx-001 or 0.05% DMSO (vehicle control) for 16 hours prior to radiation. The cells were irradiated at 5 Gy or sham-irradiated and collected 4-8 hours later for both analysis. For each experiment, duplicates of each sample were run.

HO-1 [3] = assay: Western blot of HO-1 in THP-1 monocytes and macrophages; type: cell-based, human; conditions: THP-1 macrophages, 3 mM RRx-001 for 16 hours
Description: as §1, §2

superoxide dismutase = assay: Superoxide dismutase activity assay in hMSC; type: cell-based, human; conditions: 5 mM RRx-001 for 16 hours, 8 hours after 10 Gy irradiation
Description: The activity of superoxide dismutase activity was also assayed in hMSC. hMSC were treated for 16 hours with […] RRx-001 or vehicle, irradiated at 10 Gy or sham-irradiated and whole cell homogenate collected according to the manufacture's protocol. The assay measures the activity of all three forms of SOD. The amount of SOD activity (U/mL) was normalized to protein levels.

SOD-1 = assay: Western blot of SOD-1 in U937 macrophages; type: cell-based, human; conditions: 3 mM RRx-001 for 16 hours, sham and irradiated groups
Description: as §1, §2

HO-1 [4] = assay: Western blot of HO-1 in U937 monocytes and macrophages; type: cell-based, human; conditions: 3 mM RRx-001 for 16 hours
Description: as §1, §2

O=C(CBr)N1CC([N+](=O)[O-])([N+](=O)[O-])C1 [RRx-001, 2-bromo-1-(3,3-dinitroazetidin-1-yl)ethan-1-one]
percent ulceration (mucositis score ≥3) ([1]; 10 mg/kg, Groups 2 and 5, only dosed on Days −4, −1, and 1): best response in decreasing percent ulceration | percent days of ulceration, twice weekly dosing vs dosing one time per week ([1]; 3 and 1 mg/kg concentrations (Groups 4 vs. Group 7)): more beneficial effects on percent days of ulceration | mean daily mucositis scores ([1]; Group 2: 10 mg/kg IP, dosing terminated after Day 1, 40 Gy to left buccal cheek pouch): modest but significant enhancement of disease healing | percentage of days with a mucositis score of ≥3 in comparison to the Vehicle Group ([1]; Group 2: 10 mg/kg on Days −4, −1, 1, chi-square, p<0.01): statistically lower | mean daily mucositis scores ([1]; all other treatment groups (Groups 3-7: 1, 3 or 10 mg/kg IP)): tracked fairly close to each other, and with Vehicle dosed controls | mucositis scores compared to the Vehicle control group ([1]; animals dosed with 1 mg/kg): multiple days of significant improvement | mucositis scores compared to the Vehicle control group ([1]; animals dosed with 10 mg/kg): multiple days of significant improvement | cytokine expression (cytokine array) ([2]; THP-1 macrophage fraction, 3 mM RRx-001 for 16 hours, sham and 5 Gy irradiated): reduction in cytokines involved in inflammation | CCL5/RANTES expression (cytokine array) ([2]; THP-1 monocytes, 3 mM RRx-001 for 16 hours): induction | pro-inflammatory chemokine IL-8 ([2]; macrophages): reduction | SOD1 and 2 expression (SOD1 and 2): slight increase | HO-1 expression (HO-1 [3]): no significant increase in HO-1 | Superoxide Dismutase Activity (superoxide dismutase): did not increase | SOD-1 expression (SOD-1): no change | HO-1 production (HO-1 [4]; U937 macrophages, sham and irradiated groups): increased HO-1 production | HO-1 expression (HO-1 [4]; U937 monocyte fraction): significant increase in HO-1
